Where “and” joins values, the source holds several entries; their conditions need not be identical. Equal values may be shown once.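 Grown in 96-well plates, cells were treated for 48 hours with each compound at five concentrations. Insufficient inhibition: endpoint recorded as highest concentration tested. GI50: concentration for 50% inhibition of growth. TGI: total growth inhibition.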
Assays:
Test in all cases: growth of human tumour cells (NCI), 48 h
[1] = tested on: COLO 205 colon
[2] = tested on: CAKI-1 renal
[3] = tested on: HCT-15 colon
[4] = tested on: NCI-H460 lung
[5] = tested on: SK-MEL-5 melanoma
[6] = tested on: NCI/ADR-RES ovarian
[7] = tested on: IGROV1 ovarian
[8] = tested on: SW-620 colon
[9] = tested on: EKVX NSCLC
[10] = tested on: KM12 colon
[11] = tested on: OVCAR-8 ovarian
[12] = tested on: HCC-2998 colon
[13] = tested on: UACC-257 melanoma
[14] = tested on: SF-539 CNS
[15] = tested on: K-562 leukemia
[16] = tested on: UO-31 renal
[17] = tested on: HOP-62 NSCLC
[18] = tested on: HCT-116 colon
[19] = tested on: HL-60(TB) leukemia
[20] = tested on: 786-0 renal
[21] = tested on: SN12C renal
[22] = tested on: PC-3 prostate
[23] = tested on: MALME-3M melanoma
[24] = tested on: HOP-92 NSCLC
[25] = tested on: SK-MEL-28 melanoma
[26] = tested on: RPMI-8226 leukemia
[27] = tested on: OVCAR-5 ovarian
[28] = tested on: A549 NSCLC
[29] = tested on: HT29 colon
[30] = tested on: CCRF-CEM leukemia
[31] = tested on: TK-10 renal
[32] = tested on: UACC-62 melanoma
[33] = tested on: NCI-H226 lung
[34] = tested on: OVCAR-3 ovarian
[35] = tested on: MOLT-4 leukemia
[36] = tested on: NCI-H23 lung
[37] = tested on: SR leukemia
[38] = tested on: LOX IMVI melanoma
[39] = tested on: M14 melanoma
[40] = tested on: SK-MEL-2 melanoma
[41] = tested on: MDA-N
[42] = tested on: MCF7 breast
[43] = tested on: DU-145 prostate
[44] = tested on: SK-OV-3 ovarian
[45] = tested on: SF-295 CNS
[46] = tested on: SF-268 CNS
[47] = tested on: MDA-MB-435
[48] = tested on: HS 578T breast
[49] = tested on: NCI-H522 lung
[50] = tested on: ACHN renal
[51] = tested on: SNB-75 CNS
[52] = tested on: A498 renal
[53] = tested on: OVCAR-4 ovarian
[54] = tested on: SNB-19 CNS
[55] = tested on: T-47D breast
[56] = tested on: U251 CNS
[57] = tested on: MDA-MB-231 breast
[58] = tested on: RXF 393 renal

Structure (SMILES): COc1cccc(-c2cc(=O)c3cc(N4CCOCC4)ccc3[nH]2)c1
- GI50 [1]: 35.3 nM
- TGI [1]: 46.3 nM and 234 nM
- TGI [2]: > 100000 nM
- GI50 [3]: 32.8 nM
- TGI [3]: 227 nM and 575 nM
- GI50 [4]: 272 nM
- TGI [4]: > 100000 nM
- GI50 [5]: 31.9 nM
- TGI [6]: 271 nM and 751 nM
- GI50 [7]: 145 nM
- TGI [7]: > 100000 nM
- GI50 [8]: 12.5 nM
- TGI [8]: > 100000 nM
- GI50 [9]: 60.8 nM
- TGI [9]: > 100000 nM
- GI50 [10]: 24.3 nM
- GI50 [11]: 30.3 nM
- TGI [11]: 337 nM and 152 nM
- GI50 [12]: 23.6 nM
- TGI [12]: 433 nM and 58.1 nM
- GI50 [13]: 20 nM
- TGI [13]: > 100000 nM
- GI50 [14]: 19.3 nM
- TGI [14]: 50.5 nM and 420 nM
- GI50 [15]: 26.7 nM
- TGI [15]: 179 nM
- GI50 [16]: 71.3 nM
- TGI [16]: > 100000 nM
- GI50 [17]: 79.1 nM
- TGI [17]: > 100000 nM
- GI50 [18]: 37.1 nM
- TGI [19]: 59.3 nM and 49.2 nM
- GI50 [20]: 60.2 nM
- TGI [20]: > 100000 nM
- GI50 [21]: 86.8 nM
- TGI [21]: > 100000 nM
- GI50 [22]: 28.1 nM
- TGI [22]: > 100000 nM
- GI50 [23]: 19 nM
- GI50 [24]: 246 nM
- GI50 [25]: 24.8 nM
- GI50 [26]: 135 nM
- GI50 [27]: 268 nM
- TGI [27]: > 100000 nM
- GI50 [28]: 225 nM
- TGI [28]: > 100000 nM
- GI50 [29]: 35.9 nM and 29 nM
- TGI [29]: 883 nM and 125 nM
- GI50 [30]: 21.8 nM
- TGI [30]: 111 nM
- GI50 [31]: 4840 nM
- TGI [31]: > 100000 nM
- GI50 [32]: 41 nM
- GI50 [33]: 80.6 nM
- TGI [34]: 41.2 nM
- GI50 [35]: 33.8 nM
- TGI [35]: 1480 nM and 170 nM
- GI50 [36]: 550 nM
- TGI [37]: 741 nM
- GI50 [38]: 26.1 nM
- GI50 [39]: 36.5 nM and 74.9 nM
- TGI [39]: > 100000 nM
- GI50 [40]: 93.7 nM
- TGI [41]: 27.8 nM
- GI50 [42]: 27.5 nM
- TGI [42]: 20100 nM
- GI50 [43]: 54.6 nM
- GI50 [44]: 26.8 nM and 44 nM
- TGI [44]: 36800 nM
- GI50 [45]: 204 nM
- GI50 [46]: 149 nM
- TGI [46]: 57600 nM
- TGI [47]: 25.6 nM
- TGI [48]: 55 nM
- GI50 [49]: 20.9 nM
- TGI [49]: 39.5 nM and 85.2 nM
- GI50 [50]: 70.9 nM
- TGI [50]: > 100000 nM

Structure (SMILES): COc1ccc2c3c1OC1C(OC)(OC)C=C[C@@]4(Br)[C@@H](C2)N(CC2CC2)CC[C@]314 (some centres not stated)
- TGI [1]: 94100 nM
- TGI [2]: > 100000 nM
- TGI [3]: > 100000 nM
- TGI [4]: > 100000 nM
- TGI [5]: > 100000 nM
- TGI [6]: > 100000 nM
- TGI [7]: > 100000 nM
- TGI [8]: > 100000 nM
- TGI [51]: > 100000 nM
- TGI [9]: > 100000 nM
- TGI [10]: > 100000 nM
- TGI [11]: > 100000 nM
- TGI [12]: > 100000 nM
- TGI [13]: > 100000 nM
- TGI [14]: > 100000 nM
- TGI [15]: > 100000 nM
- TGI [52]: > 100000 nM
- TGI [16]: > 100000 nM
- TGI [17]: > 100000 nM
- TGI [18]: > 100000 nM
- TGI [19]: > 100000 nM
- TGI [20]: > 100000 nM
- TGI [21]: > 100000 nM
- TGI [22]: > 100000 nM
- TGI [23]: > 100000 nM
- TGI [24]: 83900 nM
- TGI [25]: > 100000 nM
- TGI [26]: > 100000 nM
- TGI [27]: > 100000 nM
- TGI [28]: > 100000 nM
- TGI [53]: > 100000 nM
- TGI [54]: > 100000 nM
- TGI [29]: > 100000 nM
- TGI [30]: > 100000 nM
- TGI [31]: > 100000 nM
- TGI [32]: > 100000 nM
- TGI [33]: > 100000 nM
- TGI [34]: > 100000 nM
- TGI [35]: > 100000 nM
- TGI [36]: > 100000 nM
- TGI [37]: > 100000 nM
- TGI [38]: > 100000 nM
- TGI [39]: > 100000 nM
- TGI [55]: > 100000 nM
- TGI [40]: > 100000 nM
- TGI [56]: > 100000 nM
- TGI [41]: > 100000 nM
- TGI [57]: > 100000 nM
- TGI [42]: > 100000 nM
- TGI [43]: > 100000 nM
- TGI [44]: > 100000 nM
- TGI [45]: > 100000 nM
- TGI [46]: > 100000 nM
- TGI [47]: > 100000 nM
- TGI [58]: > 100000 nM
- TGI [48]: > 100000 nM
- TGI [49]: 47800 nM
- TGI [50]: > 100000 nM

Structure (SMILES): CNC(=O)C1(C#N)C(c2ccccc2)C(C#N)(C(=O)NC)C1c1ccccc1 (configuration not stated)
- TGI [1]: > 100000 nM
- TGI [2]: > 100000 nM
- TGI [3]: > 100000 nM
- TGI [4]: > 100000 nM
- TGI [5]: > 100000 nM
- TGI [6]: > 100000 nM
- TGI [7]: > 100000 nM
- TGI [8]: > 100000 nM
- TGI [51]: > 100000 nM
- TGI [9]: > 100000 nM
- TGI [10]: > 100000 nM
- TGI [11]: > 100000 nM
- TGI [12]: > 100000 nM
- TGI [14]: > 100000 nM
- TGI [15]: > 100000 nM
- TGI [52]: > 100000 nM
- TGI [16]: > 100000 nM
- TGI [17]: > 100000 nM
- TGI [18]: > 100000 nM
- TGI [20]: > 100000 nM
- TGI [21]: > 100000 nM
- TGI [22]: > 100000 nM
- TGI [24]: > 100000 nM
- TGI [25]: > 100000 nM
- TGI [26]: > 100000 nM
- TGI [27]: > 100000 nM
- TGI [28]: > 100000 nM
- TGI [53]: > 100000 nM
- TGI [54]: > 100000 nM
- TGI [29]: > 100000 nM
- TGI [30]: > 100000 nM
- TGI [31]: > 100000 nM
- TGI [33]: > 100000 nM
- TGI [34]: > 100000 nM
- TGI [35]: > 100000 nM
- TGI [36]: > 100000 nM
- TGI [37]: > 100000 nM
- TGI [38]: > 100000 nM
- TGI [39]: > 100000 nM
- TGI [55]: > 100000 nM
- TGI [40]: > 100000 nM
- TGI [56]: > 100000 nM
- TGI [41]: > 100000 nM
- TGI [42]: > 100000 nM
- TGI [44]: > 100000 nM
- TGI [45]: > 100000 nM
- TGI [46]: > 100000 nM
- TGI [47]: > 100000 nM
- TGI [48]: > 100000 nM
- TGI [49]: > 100000 nM
- TGI [50]: > 100000 nM

From PubChem BioAssay (NCI)
